Experimental data published in patent publication US9987209B2, “Multi-functional composition for cosmetic formulations” (Arch Chemicals, Inc., priority 2013, dated 2018).
Converted amounts (≈) assume the structure as drawn.

Assays:
Assay in all cases: minimum inhibitory concentration (MIC), microtiter broth dilution
Format in all cases: cell-based
[1] = system: Enterobacter gergoviae ATCC 33028; conditions: Table 2, ppm per product, stock solutions in alcohol, 35° C. for 2 days; for MIC: Pluralibacter gergoviae, ATCC33028, 48 h, read-out: minimum inhibitory concentration (MIC), E. gergoviae
Method: (§1) The following compositions were formulated and tested for antimicrobial efficacy. In particular, the compositions were tested for minimum inhibitory concentration (MIC).
(§2) Staphylococcus aureus ATCC 6538, Pseudomonas aeruginosa ATCC 9027, Klebsiella pneumonia ATCC 4352, Burkholderia cepacia ATCC 25416, Enterobacter gergoviae ATCC 33028, Candida albicans ATCC 10231, Aspergillus brasiliensis ATCC 16404, and 2 Penicillium sp. were revived from refrigerated slants and plated on TSA plates for bacteria, SDA plates for yeast, and PDA plates for mold. The broth media used for MIC determination on microtiter plates were TSB for bacteria and SDB for fungi.
(§3) All prepared solutions were considered as products and were tested at the concentration starting at 10,000 ppm per product. Samples were diluted with 2-fold serial dilution into the appropriate broth media on microtiter plates. The bacterial inoculum at concentration of 1×10^6 CFUs/mL and fungal inoculum at concentration of 1×10^5 cells or spores/mL were suspended in regular strength broth and added to the wells in 1:1 ratio to the sample/medium mixtures on microtiter plates. The final concentration of bacteria was 5×10^5 CFUs/mL; the final concentration of fungi was 5×10^4 cells or spores/mL. Bacterial plates were incubated at 35° C. for 2 days and fungal plates were incubated at 28° C. for 5 days before reading results.

[2] = system: Klebsiella pneumonia ATCC 4352; conditions: Table 2, ppm per product, stock solutions in alcohol, 35° C. for 2 days; for MIC: Klebsiella pneumoniae, ATCC4352, 48 h, read-out: minimum inhibitory concentration (MIC), K. pneumonia
Method: as §1, §2, §3

[3] = system: Burkholderia cepacia ATCC 25416; conditions: Table 2, ppm per product, stock solutions in alcohol, 35° C. for 2 days; for MIC: Burkholderia cepacia, ATCC25416, 48 h, read-out: minimum inhibitory concentration (MIC), B. cepacia
Method: as §1, §2, §3

Penicillium sp. = conditions: Table 2, ppm per product, stock solutions in alcohol, 28° C. for 5 days; for MIC: Penicillium, 120 h
Method: as §1, §2, §3

[4] = system: Aspergillus brasiliensis ATCC 16404; conditions: Table 2, ppm per product, stock solutions in alcohol, 28° C. for 5 days; for MIC: Aspergillus brasiliensis, ATCC16404, 120 h
Method: as §1, §2, §3
(§4) In this example, two compositions made according to the present disclosure were tested for minimum inhibitory concentration (MIC) as described in Example No. 1. In this example, the first sample tested was the same as Sample No. 4 described above in Example No. 1. The second sample (Sample No. 8) was identical to Sample No. 4 except 1,3 propanediol was replaced with 1,5 pentanediol. […]

[5] = system: Candida albicans ATCC 10231; conditions: Table 2, ppm per product, stock solutions in alcohol, 28° C. for 5 days; for MIC: Candida albicans, ATCC10231, 120 h
Method: as §1, §2, §3, §4

[6] = system: Staphylococcus aureus ATCC 6538; conditions: Table 2, ppm per product, stock solutions in alcohol, 35° C. for 2 days; for MIC: Staphylococcus aureus, ATCC6538, 48 h, read-out: minimum inhibitory concentration (MIC), S. aureus
Method: as §1, §2, §3, §4

[7] = system: Pseudomonas aeruginosa ATCC 9027; conditions: Table 2, ppm per product, stock solutions in alcohol, 35° C. for 2 days; for MIC: Pseudomonas aeruginosa, ATCC9027, 48 h, read-out: minimum inhibitory concentration (MIC), Ps. aeruginosa
Method: as §1, §2, §3, §4

For `CCCCCCCC(=O)O` [2.5% Octanoic Acid, Octanoic Acid], the MIC [1] was > 10000 µg/mL, the MIC [2] was > 10000 µg/mL and the MIC [3] was 10000 µg/mL (≈ 69.3 mM). For the same compound, the MIC (Penicillium sp.) was 7500 µg/mL (≈ 52 mM), the MIC [4] was > 10000 µg/mL and the MIC [5] was 2500 µg/mL (≈ 17.3 mM). For the same compound, the MIC [6] was > 10000 µg/mL and the MIC [7] was 10000 µg/mL (≈ 69.3 mM).
With `COc1cc(C=O)ccc1O` [20% Vanillin, Vanillin] the MIC [1] was 10000 µg/mL (≈ 65.7 mM), the MIC [2] was 10000 µg/mL (≈ 65.7 mM) and the MIC [3] was 5000 µg/mL (≈ 32.9 mM). It also gave an MIC (Penicillium sp.) of 2500 µg/mL (≈ 16.4 mM), an MIC [4] of 5000 µg/mL (≈ 32.9 mM) and an MIC [5] of 2500 µg/mL (≈ 16.4 mM). For the same compound, the MIC [6] was 10000 µg/mL (≈ 65.7 mM) and the MIC [7] was 5000 µg/mL (≈ 32.9 mM).
With `OCCCO` [50% 1,3-Propanediol, 1,3-Propanediol] the “minimum inhibitory concentration (MIC), E. gergoviae” value [1] was >10,000 ppm, the “minimum inhibitory concentration (MIC), K. pneumonia” value [2] was >10,000 ppm and the “minimum inhibitory concentration (MIC), B. cepacia” value [3] was 10,000 ppm. The “minimum inhibitory concentration (MIC), Penicillium sp.” value (Penicillium sp.) was >10,000 ppm, the “minimum inhibitory concentration (MIC), A. brasiliensis” value [4] was >10,000 ppm and the “minimum inhibitory concentration (MIC), C. albicans” value [5] was 10,000 ppm. The “minimum inhibitory concentration (MIC), S. aureus” value [6] was >10,000 ppm and the “minimum inhibitory concentration (MIC), Ps. aeruginosa” value [7] was 10,000 ppm.
